# Measurements as given in PMC12525728, “Safety, Pharmacokinetics, Translational and Molecular Mechanistic Insights on the Prostate Cancer Recurrence Suppressor Pseurotin A” (Molecules, 2025).
# Where two headings read alike, the source gives them in different places.
# Tests used:
# [1] = Qualitative tissue distribution (biodistribution) study after IP dosing; assay type: in vivo, Swiss albino mice; details: IP 125 mg/kg, 7 min after dosing
# Experimental: (§1) Five µL of the IS ([…]) and 20 µL of 50, 40, 30, 20, 10, 8, and 4 µg/mL PsA standard solutions were combined with 15 µL freshly extracted blank mouse plasma. 300 µL of a 70% EtOAc/30% isopropanol mixture was added and vortexed for 30 s. Following centrifugation at 15,000× g for 10 min, the supernatant was transferred to a 2 mL Eppendorf tube for nitrogen evaporation. The residues were reconstituted in 25 µL HPLC-grade MeOH before being subjected to 30 s sonication followed by centrifugation at 15,000× g for 10 min. Afterwards, the entire sample was immediately injected for RP-HPLC analysis. The mouse plasma samples used in the PK study were subjected to the same extraction method, minus the addition of the PsA standard solutions. After weighing, each mouse organ was reconstituted in 500 µL PBS, then homogenized using the MISONIX Sonicator (Division of QSonica LLC, Newtown, CT, USA). Samples were centrifuged at 15,000× g for 10 min, and the supernatant was collected and transferred to a 2 mL Eppendorf. About 5 µL of IS (25 µL/mL) and 300 µL of a 70% EtOAc/30% isopropanol mixture were added to 100 µL of supernatant and vortexed for 30 s. Following centrifugation at 15,000× g for 10 min, the supernatant was transferred to a 2 mL Eppendorf tube and evaporated under N2. The remains were reconstituted in 40 µL HPLC-grade methanol before being subjected to 30 s sonication followed by centrifugation at 15,000× g for 10 min.
# For the biodistribution study, four healthy male and two healthy female Swiss albino mice were randomly selected and placed in 2 groups (n = 3/group). The mice received free access to drinking water and pelleted regular rodent chow (Cat# 7012, Envigo/Teklad, Madison, WI, USA) until the day before experimentation, after which they were fasted for 8 h and allowed only free access to drinking water. One group was IP administered 125 mg/kg PsA formulated in PBS-DMSO (925:75) + 0.2% Tween 80 at a body weight-adjusted volume not exceeding 300 µL. […] Collected samples were immediately extracted using the described method above and analyzed using HPLC.
# [2] = Chemical stability of PsA in mice plasma (HPLC); assay type: in vitro ADME; details: for Stability 24 h Room Temperature, Accuracy (%) / Stability −20 °C for 2 Weeks, Accuracy (%) / Stability Freeze-Thaw Cycles, Accuracy (%): mice plasma, n = 3; for Stability Freeze-Thaw Cycles, Accuracy (%): three cycles
# Experimental: Chromatographic analysis was conducted on a Shimadzu HPLC system (Shimadzu USA Manufacturing Inc., Canby, OR, USA) equipped with an SPD-20A UV detector, 20 µL manual sampler, LC-20AD pump, a degasser, and an automated temperature-controlled column compartment. The UV detector, column oven, and LC-20AD pump were coupled to the Shimadzu system and controlled through Lab Solutions software, v5.111. Stationary phase separation was carried out using a Shimadzu Shim-Pack GWS C18 column (4.6 × 250 mm, 5 µm) equipped with a Zorbax ODS guard column (4.6 × 12.5 mm, 5 µm) by gradient elution with the column temperature maintained at 35 °C. The UV detector wavelength was set and measured at 254 nm. A constant flow rate of 1.0 mL/min and manual injection of 20 µL were employed throughout the HPLC analysis. A mobile phase consisting of aqueous HCOOH (0.1%, v/v, mobile system A) and HPLC grade CH3CN (mobile system B) utilized with a gradient elution of 30–60% B at 0–5 min, 60–85% B at 5–8 min, 85–95% B at 8–11.5 min, and 95% B at 11.5–18 min. The post-run re-equilibration time was 5 min.
# as §1
# The stability of PsA at room temperature was determined by preparing six separate mouse plasma samples for each concentration. Three samples for each concentration were immediately extracted and injected into the HPLC. The three remaining samples were left on a lab bench protected from light for 24 h before being extracted and injected into the HPLC. The concentrations measured at the 0 and 24 h time points were compared. The stability of PsA after three freeze-thaw cycles was assessed by preparing six separate mouse plasma samples for each concentration. Three samples for each concentration were immediately extracted and injected into the HPLC. The three remaining samples for each concentration were frozen and thawed in a −80 °C freezer three separate times before being extracted and injected into the HPLC. The stability of PsA at −20 °C for 2 weeks was determined by preparing six separate mouse plasma samples for each concentration. Three samples for each concentration were immediately extracted and injected into the HPLC. The three remaining samples were left in a −20 °C freezer for two weeks before being thawed, extracted, and analyzed on the HPLC.
# [3] = Pharmacokinetics study in Swiss albino mice; assay type: in vivo; details: for C0 / AUC(0-t): iv, 50 mg/kg
# Experimental: as §1
# The mean plasma concentration-time curve was plotted using GraphPad Prism software version 8.0.2 (La Jolla, CA, USA). PK parameters were obtained through non-compartmental analysis following intravenous bolus input using PK Solver 2.0 [52].
# For the PKs study, twelve male and twelve female healthy Swiss albino mice were randomly selected and placed in 3 groups (n = 4/sex/group). The mice received free access to drinking water and pelleted regular rodent chow (5% fat content, Cat# 7012, Envigo/Teklad, Madison, WI, USA) until the day before experimentation, after which they were fasted for 8 h and allowed only free access to drinking water. Mice were administered PsA formulated in sterile PBS-DMSO (925:75) + 0.2% Tween 80 at a volume not exceeding 100 µL intravenously through recto-orbital injection. Each animal was anaesthetized using Isoflurane (Piramal Critical Care Inc., Bethlehem, PA, USA) for 1–2 min before injection. Disposable sterilized syringes (Becton, Dickinson and Company, Franklin Lakes, NJ, USA) were used for blood collection as well as administration of PsA at a dose of 50 mg/kg and volume, adjusted to the mouse body weight, no greater than 100 µL for animal safety considerations. Blood samples of around 50–70 µL were collected through the tail vein in 600 µL Eppendorf tubes at time points 0.25, 0.75, and 1.5 h for groups 1 and 4, 0.083, 0.5, and 1 h for groups 2 and 5, in addition to 2 and 4 h for groups 3 and 6 following intravenous injection and subjected to immediate centrifugation. From the plasma, 15 µL was transferred into clean 600 µL Eppendorf tubes and immediately subjected to the extraction method listed above and analyzed using HPLC.
structure (smiles),measurement,setting,value
"CC/C=C\[C@H](O)[C@H](O)C1=C(C)C(=O)[C@]2(O1)C(=O)N[C@@](OC)(C(=O)c1ccccc1)[C@@H]2O [PsA, pseurotin A]",PsA HPLC peak in brain tissue (BBB crossing),[1],did not display PsA peak
same,"PsA HPLC peak in liver, kidney, heart and spleen tissue",[1],prominent PsA peak
same,PsA HPLC peak in plasma,[1],prominent PsA peak
same,"Stability 24 h Room Temperature, Accuracy (%)",[2]; 4 µg/mL,35.2%
same,"Stability −20 °C for 2 Weeks, Accuracy (%)",[2]; 4 µg/mL,83.6%
same,"Stability Freeze-Thaw Cycles, Accuracy (%)",[2]; 4 µg/mL,94.0%
same,"Stability 24 h Room Temperature, Accuracy (%)",[2]; 50 µg/mL,35.5%
same,"Stability −20 °C for 2 Weeks, Accuracy (%)",[2]; 50 µg/mL,93.5%
same,"Stability Freeze-Thaw Cycles, Accuracy (%)",[2]; 50 µg/mL,108.1%
same,"Stability 24 h Room Temperature, Accuracy (%)",[2]; 250 µg/mL,48.8%
same,"Stability −20 °C for 2 Weeks, Accuracy (%)",[2]; 250 µg/mL,90.6%
same,"Stability Freeze-Thaw Cycles, Accuracy (%)",[2]; 250 µg/mL,100.6%
same,concentration loss,"[2]; mouse plasma, room temperature, 24 h",over 50%
same,plasma detectability over time by HPLC,[3]; IV 50 mg/kg,undetectable by the HPLC method after 2 h
same,C0,"[3]; both sexes, Swiss albino, mouse, plasma, IV 50 mg/kg, read-out: initial concentration range",24600 to 34200 ng/mL
same,AUC(0-t),"[3]; both sexes, Swiss albino, mouse, plasma, single IV 50 mg/kg, 8 h fasting, non-compartmental, mean, read-out: AUC0–t",19100 ng·h/mL
same,AUC(0-t),"[3]; both sexes, Swiss albino, mouse, plasma, single IV 50 mg/kg, 8 h fasting, non-compartmental, mean, read-out: AUCt–∞",20900 ng·h/mL
same,C0,"[3]; both sexes, Swiss albino, mouse, plasma, single IV 50 mg/kg, 8 h fasting, non-compartmental, mean, read-out: C0, initial plasma concentration",37300 ng/mL
same,Vd,"[3]; both sexes, Swiss albino, mouse, plasma, IV 50 mg/kg, read-out: average volume of distribution (Vd)",1.83 L/kg
same,MRT,"[3]; both sexes, Swiss albino, mouse, plasma, single IV 50 mg/kg, 8 h fasting, non-compartmental, mean, read-out: MRT, mean residence time",44.4 min
same,half-life,"[3]; both sexes, Swiss albino, mouse, plasma, single IV 50 mg/kg, 8 h fasting, non-compartmental, mean, read-out: T1/2, elimination half-life (converted)",31.8 min
same,Vd,"[3]; both sexes, Swiss albino, mouse, plasma, single IV 50 mg/kg, 8 h fasting, non-compartmental, mean, read-out: Vd, volume of distribution",1.83 L
same,"AUMC, area under the moment curve","[3]; single IV 50 mg/kg, 8 h fasting, non-compartmental, mean",15410 ng·h/mL
